Measured values reported in the supplement of paper PMC12646585.

Tested on: TK6
Experiment: relative viability (MTT, 20-24 h post-exposure) vs solvent control; higher = less cytotoxic
Details: exposure time: 4 h (S9 compounds: 3 h + 4 h recovery)
Description: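 Human TK6 lymphoblastoid cells were exposed for 4 h to three concentrations of each compound at four ring-trial labs. Compounds P, Q, R and CC were given for 3 h with rat liver S9 plus 4 h recovery. Relative survival was measured by MTT assay 20-24 h after exposure, as % viability relative to solvent control (mean with SD), in the Result 1 round with preselected concentrations.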

CCC1(c2ccccc2)C(=O)N=C([O-])NC1=O.[Na+] (centres undefined) [Phenobarbital sodium]
relative viability [%]
Details | batch: 4, lab: Lab 1 | batch: 4, lab: Lab 2 | batch: 4, lab: Lab 3 | batch: 4, lab: Lab 4
concentration: 0.11mM | 98.3 | 85.5 | 149 | 95.2
concentration: 0.33mM | 95.6 | 84.2 | 119 | 96.8
concentration: 1mM | 95.7 | 82.3 | 116 | 99.5

Cn1c(=O)c2c(ncn2C)n(C)c1=O [Caffeine]
concentration: 2mM
Details | relative viability [%]
batch: 1, lab: Lab 1 | 94.7
batch: 1, lab: Lab 2 | 86.4
batch: 1, lab: Lab 3 | 108
batch: 1, lab: Lab 4 | 98.2
batch: 2, lab: Lab 1 | 96.7
batch: 2, lab: Lab 2 | 80.1
batch: 2, lab: Lab 3 | 88.9
batch: 2, lab: Lab 4 | 100
batch: 3, lab: Lab 1 | 96.4
batch: 3, lab: Lab 2 | 92.5
batch: 3, lab: Lab 3 | 107
batch: 3, lab: Lab 4 | 92.6

Nc1ccc2cc3ccccc3cc2c1 [2-Aminoanthracene]
relative viability [%]
Details | batch: 4, lab: Lab 1 | batch: 4, lab: Lab 2 | batch: 4, lab: Lab 3 | batch: 4, lab: Lab 4
concentration: 0.22ug/mL | 95.8 | 97.3 | 102 | 96.3
concentration: 0.67ug/mL | 94.8 | 87.8 | 95.5 | 93.5
concentration: 2ug/mL | 47 | 16.8 | 23.1 | 9.75

c1ccc2c(c1)cc1ccc3cccc4ccc2c1c34 [Benzo[a]pyrene]
concentration: 10ug/mL
Details | relative viability [%]
batch: 4, lab: Lab 1 | 67.8
batch: 4, lab: Lab 2 | 35.7
batch: 4, lab: Lab 3 | 66.3
batch: 4, lab: Lab 4 | 75

O=[N+]([O-])c1ccc(O)c([N+](=O)[O-])c1 [2,4-Dinitrophenol]
relative viability [%]
Details | batch: 3, lab: Lab 1 | batch: 3, lab: Lab 2 | batch: 3, lab: Lab 3 | batch: 3, lab: Lab 4
concentration: 0.11mM | 92.2 | 98.2 | 71.1 | 97.7
concentration: 0.33mM | 84.7 | 85 | 67.4 | 98.6
concentration: 1mM | 58.6 | 37.2 | 63.9 | 99.4

Cc1c(N)nc(C(CC(N)=O)NCC(N)C(N)=O)nc1C(=O)NC(C(=O)NC(C)C(O)C(C)C(=O)NC(C(=O)NCCc1nc(-c2nc(C(=O)NCCC[S+](C)C)cs2)cs1)C(C)O)C(O[C@@H]1O[C@@H](CO)[C@@H](O)[C@H](O)[C@@H]1O[C@H]1O[C@H](CO)[C@@H](O)[C@H](OC(N)=O)[C@@H]1O)c1cnc[nH]1.O=S(=O)([O-])O (some centres undefined) [Bleomycin (sulfate)]
Details | relative viability [%]
concentration: 5ug/mL, batch: 2, lab: Lab 1 | 80.5
concentration: 5ug/mL, batch: 2, lab: Lab 2 | 53.4
concentration: 5ug/mL, batch: 2, lab: Lab 3 | 51
concentration: 5ug/mL, batch: 2, lab: Lab 4 | 56.4
concentration: 5ug/mL, batch: 3, lab: Lab 1 | 78
concentration: 5ug/mL, batch: 3, lab: Lab 2 | 66
concentration: 5ug/mL, batch: 3, lab: Lab 3 | 49.7
concentration: 5ug/mL, batch: 3, lab: Lab 4 | 54.6
concentration: 10ug/mL, batch: 1, lab: Lab 1 | 41.8
concentration: 10ug/mL, batch: 1, lab: Lab 2 | 59.6
concentration: 10ug/mL, batch: 1, lab: Lab 3 | 53
concentration: 10ug/mL, batch: 1, lab: Lab 4 | 50.6

CN[C@@H]1C[C@H]2O[C@@](C)([C@@H]1OC)n1c3ccccc3c3c4c(c5c6ccccc6n2c5c31)C(=O)NC4 [Staurosporine]
relative viability [%]
Details | batch: 3, lab: Lab 1 | batch: 3, lab: Lab 2 | batch: 3, lab: Lab 3 | batch: 3, lab: Lab 4
concentration: 3nm | 104 | 114 | 130 | 97.4
concentration: 10nm | 103 | 99.1 | 111 | 91.4
concentration: 30nm | 97 | 69.7 | 69.7 | 73.9

C[C@@H]1C[C@H]2[C@@H]3CCC4=CC(=O)C=C[C@]4(C)[C@@]3(F)[C@@H](O)C[C@]2(C)[C@@]1(O)C(=O)CO [Dexamethasone]
relative viability [%]
Details | batch: 3, lab: Lab 1 | batch: 3, lab: Lab 2 | batch: 3, lab: Lab 3 | batch: 3, lab: Lab 4
concentration: 0.11mM | 105 | 103 | 127 | 112
concentration: 0.33mM | 101 | 97.9 | 142 | 111
concentration: 1mM | 86.6 | 86.4 | 143 | 92.2

O=C(O)CCCc1ccc(N(CCCl)CCCl)cc1 [Chlorambucil]
relative viability [%]
Details | batch: 3, lab: Lab 1 | batch: 3, lab: Lab 2 | batch: 3, lab: Lab 3 | batch: 3, lab: Lab 4
concentration: 0.44uM | 95.2 | 84.9 | 80.8 | 97.2
concentration: 1.33uM | 89.6 | 95.9 | 74.1 | 92.3
concentration: 4uM | 78.9 | 71.7 | 67.2 | 75.3

O.O=P1(N(CCCl)CCCl)NCCCO1 (centres undefined) [Cyclophosphamide]
relative viability [%]
Details | batch: 4, lab: Lab 1 | batch: 4, lab: Lab 2 | batch: 4, lab: Lab 3 | batch: 4, lab: Lab 4
concentration: 2.22uM | 103 | 94.2 | 157 | 80.3
concentration: 6.67uM | 96.49 | 69 | 107 | 81.7
concentration: 20uM | 90.45 | 47.2 | 73.4 | 58.4

CCOS(C)(=O)=O [EMS (Ethyl methanesulfonate)]
relative viability [%]
Details | batch: 2, lab: Lab 1 | batch: 2, lab: Lab 2 | batch: 2, lab: Lab 3 | batch: 2, lab: Lab 4
concentration: 0.22mM | 95.4 | 105 | 98.2 | 103
concentration: 0.67mM | 91.7 | 98.1 | 96.6 | 92.6
concentration: 2mM | 85.2 | 84.6 | 67.7 | 80.4

CCN(N=O)C(N)=O [ENU (N-Nitroso-N-ethylurea)]
relative viability [%]
Details | batch: 2, lab: Lab 1 | batch: 2, lab: Lab 2 | batch: 2, lab: Lab 3 | batch: 2, lab: Lab 4
concentration: 0.056mM | 97.9 | 87.58 | 99.1 | 101
concentration: 0.167mM | 92.2 | 104 | 93.5 | 89.3
concentration: 0.5mM | 70.5 | 95.6 | 69.3 | 76.1

CC1(C)S[C@@H]2[C@H](NC(=O)[C@H](N)c3ccccc3)C(=O)N2[C@H]1C(=O)O [Ampicillin]
relative viability [%]
Details | batch: 1, lab: Lab 1 | batch: 1, lab: Lab 2 | batch: 1, lab: Lab 3 | batch: 1, lab: Lab 4
concentration: 0.11mM | 102 | 104 | 115 | 127
concentration: 0.33mM | 94.9 | 115 | 123 | 126
concentration: 1mM | 99.9 | 98.3 | 121 | 112

C[C@@H]1C[C@@H]([C@H](O)CC2CC(=O)NC(=O)C2)C(=O)[C@@H](C)C1 [Cycloheximide]
relative viability [%]
Details | batch: 1, lab: Lab 1 | batch: 1, lab: Lab 2 | batch: 1, lab: Lab 3 | batch: 1, lab: Lab 4
concentration: 1.11uM | 89.7 | 85.7 | 94.1 | 86.8
concentration: 3.33uM | 64 | 65.6 | 72.2 | 69.7
concentration: 10uM | 49.4 | 46.1 | 41.3 | 57.4

OC[C@@H](O)[C@@H](O)[C@H](O)[C@H](O)CO [D-Mannitol]
relative viability [%]
Details | batch: 1, lab: Lab 1 | batch: 1, lab: Lab 2 | batch: 1, lab: Lab 3 | batch: 1, lab: Lab 4
concentration: 0.11mM | 90 | 97 | 145 | 110
concentration: 0.33mM | 98.7 | 104 | 137 | 107
concentration: 1mM | 103 | 104 | 139.3 | 107

CCN(CC)CCNC(=O)c1c(C)[nH]c(/C=C2\C(=O)Nc3ccc(F)cc32)c1C.O=C(O)C[C@H](O)C(=O)O [Sunitinib malate]
relative viability [%]
Details | batch: 2, lab: Lab 1 | batch: 2, lab: Lab 2 | batch: 2, lab: Lab 3 | batch: 2, lab: Lab 4
concentration: 2.22uM | 103 | 77.8 | 91.3 | 99.4
concentration: 6.67uM | 90.4 | 64.7 | 69 | 86.4
concentration: 20uM | 64.6 | 28.5 | 37 | 40.8
